Patent US20260109707A1, “HETEROBIFUNCTIONAL COMPOUNDS AND METHODS OF TREATING DISEASE” (Halda Therapeutics OpCo. Inc., priority 2022, published 2026)

Legend:
T47D cells = assay: Cellular growth inhibition assay for T47D cells (CellTiter-Glo, 72 hours); assay type: cell-based, human; conditions: Homo sapiens, T47D, 72 h, 72 hours treatment
How it was run: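 Cells are plated at 3000/well and allowed 24 h before treatment. Test compound in medium containing 0.5% DMSO is then added, with DMSO-only wells as negative control, and plates are incubated 72 h at 37 °C. ATP luminescence (CellTiter-Glo 2.0) is then fitted to four parameters to derive GI50.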

[1] = tested on: T-Rex 293 cell line SC3 cells having increased expression of androgen receptor protein due to exposure to doxycycline; assay: Cellular growth inhibition assay, T-Rex 293 SC3 cells with doxycycline (CellTiter-Glo, 72 hours); assay type: cell-based; conditions: 72 h, T-Rex 293 SC3 cells with increased androgen receptor expression due to doxycycline (10 ng/mL)
How it was run: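 Growth inhibition is measured in an inducible AR-expressing T-Rex 293 clone, SC3, cultured with or without 10 ng/mL doxycycline in hormone-depleted medium. Test compounds are applied for 72 hours. GI50 values derive from CellTiter-Glo 2.0 signal fitted by four-parameter regression.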

Row | GI50 (T47D cells) [µM] | SMILES | GI50 [1] [µM]
1 | < 0.5 | Cc1sc2c(c1C)C(c1ccc(Cl)cc1)=N[C@@H](CC(=O)NCCOC1CCN(c3ccc(C(=O)N[C@H]4CC[C@H](Oc5ccc(C#N)c(Cl)c5)CC4)nn3)CC1)c1nnc(C)n1-2 [I-1, N-[4-(3-chloro-4-cyano-phenoxy)cyclohexyl]-6-[4-[2-[[2-[(9S)-7-(4-chlorophenyl)-4,5,13-trimethyl-3-thia-1,8,11,12-tetrazatricyclo[8.3.0.0^2,6]trideca-2(6),4,7,10,12-pentaen-9-yl]acetyl]amino]ethoxy]-1-piperidyl]pyridazine-3-carboxamide] | 0.5 to 1.5
2 | 1.5 to 3 | Cc1sc2c(c1C)C(c1ccc(Cl)cc1)=N[C@@H](CC(=O)NCCOCCOCCOC1CCN(c3ccc(C(=O)N[C@H]4CC[C@H](Oc5ccc(C#N)c(Cl)c5)CC4)nn3)CC1)c1nnc(C)n1-2 [I-2, N-[4-(3-chloro-4-cyano-phenoxy)cyclohexyl]-6-[4-[2-[2-[2-[[2-[(9S)-7-(4-chlorophenyl)-4,5,13-trimethyl-3-thia-1,8,11,12-tetrazatricyclo[8.3.0.0^2,6]trideca-2(6),4,7,10,12-pentaen-9-yl]acetyl]amino]ethoxy]ethoxy]ethoxy]-1-piperidyl]pyridazine-3-carboxamide] | < 0.5
3 | < 0.5 | CCNC(=O)C[C@@H]1N=C(c2ccc(OCCOC3CCN(c4ccc(C(=O)N[C@H]5CC[C@H](Oc6ccc(C#N)c(Cl)c6)CC5)nn4)CC3)cc2)c2c(sc(C)c2C)-n2c(C)nnc21 [I-8] | < 0.5
4 | < 0.5 | CCNC(=O)C[C@@H]1N=C(c2ccc(OCCOCCOC3CCN(c4ccc(C(=O)N[C@H]5CC[C@H](Oc6ccc(C#N)c(Cl)c6)CC5)nn4)CC3)cc2)c2c(sc(C)c2C)-n2c(C)nnc21 [I-10] | < 0.5
5 | < 0.5 | CCNC(=O)C[C@@H]1N=C(c2ccc(CCCOC3CCN(c4ccc(C(=O)N[C@H]5CC[C@H](Oc6ccc(C#N)c(Cl)c6)CC5)nn4)CC3)cc2)c2c(sc(C)c2C)-n2c(C)nnc21 [I-17] | < 0.5
6 | 0.5 to 1.5 | CCNC(=O)C[C@@H]1N=C(c2ccc(CC3CCN(c4ccc(C(=O)N[C@H]5CC[C@H](Oc6ccc(C#N)c(Cl)c6)CC5)nn4)CC3)cc2)c2c(sc(C)c2C)-n2c(C)nnc21 [I-20] | < 0.5
7 | < 0.5 | CCNC(=O)C[C@@H]1N=C(c2ccc(N3CC4(C3)CN(c3ccc(C(=O)N[C@H]5CC[C@H](Oc6ccc(C#N)c(Cl)c6)CC5)nn3)C4)cc2)c2c(sc(C)c2C)-n2c(C)nnc21 [I-24] | 0.5 to 1.5
8 | < 0.5 | CCNC(=O)C[C@@H]1N=C(c2ccc(OCC3CN(c4ccc(C(=O)N[C@H]5CC[C@H](Oc6ccc(C#N)c(Cl)c6)CC5)nn4)C3)cc2)c2c(sc(C)c2C)-n2c(C)nnc21 [I-29] | < 0.5
9 |  | CCNC(=O)C[C@@H]1N=C(c2ccc(N3CCC(OC4CCN(c5ccc(C(=O)N[C@H]6CC[C@H](Oc7ccc(C#N)c(Cl)c7)CC6)nn5)CC4)CC3)cc2)c2c(sc(C)c2C)-n2c(C)nnc21 [I-44] | < 0.5
10 | 0.5 to 1.5 | CCNC(=O)C[C@@H]1N=C(c2ccc(OCCCN(C)c3ccc(C(=O)N[C@H]4CC[C@H](Oc5ccc(C#N)c(Cl)c5)CC4)nn3)cc2)c2c(sc(C)c2C)-n2c(C)nnc21 [I-48] | < 0.5
